The text below walks through data of US20130116227A1, “BIARYL AMIDE DERIVATIVE OR PHARMACEUTICALLY ACCEPTABLE SALT THEREOF” (DAINIPPON SUMITOMO PHARMA CO., LTD., priority 2010, published 2013).

Molecules are shown by their SMILES. pIC50: −log10 of the molar value.

The target in this test is T1, aldosterone receptor (Rattus norvegicus, UniProt P22199).
T1 construct: centrifuged at 105,000 g for 30 minutes, and then a supernatant was collected as a renal soluble fraction; from tissue; host or cells: rat kidney (adrenalectomized rat), 105,000 g supernatant (cytosol)
T1 sequence (P22199 1-981): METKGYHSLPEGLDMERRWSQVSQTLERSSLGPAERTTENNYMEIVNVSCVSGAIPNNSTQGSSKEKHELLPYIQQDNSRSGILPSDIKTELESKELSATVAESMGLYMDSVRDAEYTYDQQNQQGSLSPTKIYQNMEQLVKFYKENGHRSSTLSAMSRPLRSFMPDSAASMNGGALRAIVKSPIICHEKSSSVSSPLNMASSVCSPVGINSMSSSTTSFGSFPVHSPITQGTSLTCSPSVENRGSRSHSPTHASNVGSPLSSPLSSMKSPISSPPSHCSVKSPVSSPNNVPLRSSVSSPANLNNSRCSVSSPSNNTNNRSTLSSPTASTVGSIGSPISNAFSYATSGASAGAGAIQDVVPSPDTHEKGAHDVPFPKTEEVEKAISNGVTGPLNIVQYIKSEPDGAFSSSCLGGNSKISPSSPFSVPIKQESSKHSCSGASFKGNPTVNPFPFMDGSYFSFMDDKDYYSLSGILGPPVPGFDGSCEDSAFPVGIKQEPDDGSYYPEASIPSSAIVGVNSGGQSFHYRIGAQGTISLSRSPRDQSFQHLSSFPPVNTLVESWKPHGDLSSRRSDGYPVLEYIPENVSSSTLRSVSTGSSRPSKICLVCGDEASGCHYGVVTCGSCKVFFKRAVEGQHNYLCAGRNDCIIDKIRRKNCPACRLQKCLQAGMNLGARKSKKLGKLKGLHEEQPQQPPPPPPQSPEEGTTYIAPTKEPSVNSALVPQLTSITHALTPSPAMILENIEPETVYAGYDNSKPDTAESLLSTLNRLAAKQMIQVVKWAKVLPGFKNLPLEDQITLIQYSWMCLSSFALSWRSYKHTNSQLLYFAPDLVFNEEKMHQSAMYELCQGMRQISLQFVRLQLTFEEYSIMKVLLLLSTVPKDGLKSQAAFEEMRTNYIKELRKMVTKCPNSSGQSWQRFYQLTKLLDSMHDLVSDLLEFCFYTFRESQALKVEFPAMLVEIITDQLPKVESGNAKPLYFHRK
Description: Binding inhibition test for aldosterone receptor ([3H]aldosterone, rat renal soluble fraction). The settings on record: [3H]aldosterone 2 nM, rat renal soluble fraction, in the presence of 2 μM RU-486, 4° C. about 18 hours; read-out: MR IC50. As for the experimental part: Binding Inhibition Test for Aldosterone Receptor
A rat was layed open in flank regions (on both sides) to remove both adrenal glands. After stitching up the incision, the rat was returnd to a breeding cage again. After removing the kidney from the rat reared for about 3 to 5 days, the kidney was homogenized in 0.1 M Tris-HCl, 0.25M sucrose, 0.1M Na2MoO4 and 2 mM DTT buffer solution (pH7.4). The resultant was centrifuged at 105,000 g for 30 minutes, and then a supernatant was collected as a renal soluble fraction.
The rat renal soluble fraction (0.5 to 1.5 mg), a labeled ligand [^3H] aldosterone (2 nM) and a test article were reacted in the presence of 2 μM RU-486 (glucocorticoid receptor antagonist) in 100 μL of total amounts at 4° C. for about 18 hours. Afterwards, to the reaction solution was added 50 μL of 5% dextran-coated activated charcoal, and the mixture was immingled, and then centrifuged at 3,000 g for 5 minutes. Then, a supernatant (100 μL) was collected and mixed with a liquid scintillator ACS-II (Amersham) (3.5 mL), and then analyzed its radioactivity by a liquid scintillation counter (manufactured by Packard, Tri Carb 2700TR). A non-specific binding was obtained by addition of 2 μM aldosterone to a reaction solution. […]
Binding inhibition rate (%)=100−{(B−N)/(B0−N)}×100
B: labeled ligand binding amounts in the presence of a test article and a labeled ligand
B0: labeled ligand binding amounts in the absence of a test article
N: labeled ligand binding amounts in the presence of excess aldosterone (2 μM)
Test example 1 was carried out for compounds obtained in the Examples.
What is called pIC50 is the negative decadic logarithm of the IC50, by convention in mol/L. `COc1cc(C(=O)Nc2ccc(-c3ccc(O)cc3C(F)(F)F)c(CO)c2)ccc1S(N)(=O)=O` [Example 315]: the negative-log IC50 (pIC50) was 6.38.
On to `COc1cc(C(=O)Nc2ccc(-c3ccc(OCCO)cc3C(F)(F)F)c(CO)c2)ccc1S(N)(=O)=O` [Example 320], for which the pIC50 is 5.60.
With `COc1cc(C(=O)Nc2ccc(-c3ccccc3C(F)(F)F)c(CO)c2)ccc1S(N)(=O)=O` [Example 323-2], the negative logarithm of the IC50 (pIC50) was 6.60.
Turning to `COc1cc(C(=O)Nc2ccc(-c3ccccc3C(F)(F)F)c(CCl)c2)ccc1S(N)(=O)=O` [Example 324], the pIC50 was 6.72.
For the molecule `COc1cc(C(=O)Nc2ccc(-c3ccccc3C(F)(F)F)c(CNCc3ccco3)c2)ccc1S(N)(=O)=O` [Example 329], the pIC50 was 6.66.
`COc1cc(C(=O)Nc2ccc(-c3ccccc3C(F)(F)F)c(COCCCO)c2)ccc1S(N)(=O)=O` [Example 333]: the pIC50 is 6.55.
In the case of `COc1cc(C(=O)Nc2ccc(-c3ccccc3OC(F)(F)F)c(CCO)c2)ccc1S(N)(=O)=O` [Example 335] it was 6.46; in that of `COc1cc(C(=O)Nc2ccc(-c3ccccc3CN3CCOCC3)c(C)c2)ccc1S(N)(=O)=O` [Example 337], 5.96; in that of `COc1cc(C(=O)Nc2ccc(-c3ccccc3N3CCCCC3)c(C)c2)ccc1S(N)(=O)=O` [Example 342], 6.33.
In the case of `COc1cc(C(=O)Nc2ccc(-c3ccccc3N3C[C@@H](C)O[C@@H](C)C3)c(C)c2)ccc1S(N)(=O)=O` [Example 345] it was 6.85.
In the case of `COc1cc(C(=O)Nc2ccc(-c3ccccc3NC3CCCC3)c(C)c2)ccc1S(N)(=O)=O` [Example 346] it was 5.96; in that of `COc1cc(C(=O)Nc2ccc(-c3ccccc3NC(C)C)c(C)c2)ccc1S(N)(=O)=O` [Example 351], 5.92.
For the molecule `CCC(CC)NCc1cc(NC(=O)c2ccc(S(N)(=O)=O)c(OC)c2)ccc1-c1ccccc1C(F)(F)F` [Example 355], the pIC50 is 6.00.
For `COCCNCc1cc(NC(=O)c2ccc(S(N)(=O)=O)c(OC)c2)ccc1-c1ccccc1C(F)(F)F` [Example 357], the pIC50 is 6.89.
In the case of `COc1cc(C(=O)Nc2ccc(-c3ccccc3C(F)(F)F)c(CC#N)c2)ccc1S(N)(=O)=O` [Example 363] it was 6.12; in that of `COCCNCc1cc(NC(=O)c2ccc(S(N)(=O)=O)c(OC)c2)ccc1-c1ccccc1OC(F)(F)F` [Example 364], 6.27; in that of `CCC(CC)NCc1cc(NC(=O)c2ccc(S(N)(=O)=O)c(OC)c2)ccc1-c1ccccc1OC(F)(F)F` [Example 365], 6.34.
Turning to `COc1cc(C(=O)Nc2ccc(-c3ccccc3C(F)(F)F)c(CN3CC(C)OC(C)C3)c2)ccc1S(N)(=O)=O` (stereo not drawn) [Example 371], the pIC50 is 6.35.
Regarding `CCOCc1cc(NC(=O)c2ccc(S(N)(=O)=O)c(OC)c2)ccc1-c1ccccc1C(F)(F)F` [Example 373], the negative logarithm of the IC50 (pIC50) is 7.00.
Turning to `COc1cc(C(=O)Nc2ccc(-c3ccccc3C(F)(F)F)c(CN3CC[C@H](F)C3)c2)ccc1S(N)(=O)=O` [Example 376], the pIC50 was 6.42.
As to `COc1cc(C(=O)Nc2ccc(-c3ccccc3C(F)(F)F)c(CN3CC(F)(F)C3)c2)ccc1S(N)(=O)=O` [Example 385], the negative-log IC50 (pIC50) is 6.20.
`COc1cc(C(=O)Nc2ccc(-c3ccccc3C(F)(F)F)c(CN3CCSCC3)c2)ccc1S(N)(=O)=O` [Example 387]: the negative logarithm of the IC50 (pIC50) is 6.44.
Turning to `COc1cc(C(=O)Nc2ccc(-c3ccccc3C(F)(F)F)c(CNCC(F)F)c2)ccc1S(N)(=O)=O` [Example 389], the pIC50 was 6.25.
Regarding `COc1cc(C(=O)Nc2ccc(-c3ccccc3C(F)(F)F)c(CN3CCC(F)CC3)c2)ccc1S(N)(=O)=O` [Example 392], the pIC50 was 6.35.
The same measure for `COc1cc(C(=O)Nc2ccc(-c3ccccc3C(F)(F)F)c(CN3CCC4(CC3)OCCO4)c2)ccc1S(N)(=O)=O` [Example 393]: 6.28.
On to `COc1cc(C(=O)Nc2ccc(-c3ccccc3C(F)(F)F)c(CN3CCC4(C3)OCCO4)c2)ccc1S(N)(=O)=O` [Example 395], for which the negative-log IC50 (pIC50) was 6.72.
In the case of `COc1cc(C(=O)Nc2ccc(-c3ccccc3C(F)(F)F)c(CNC3CC3)c2)ccc1S(N)(=O)=O` [Example 403] it was 6.20; in that of `COc1cc(C(=O)Nc2ccc(-c3ccccc3C(F)(F)F)c(Cn3cccn3)c2)ccc1S(N)(=O)=O` [Example 405], 6.68; in that of `COc1cc(C(=O)Nc2ccc(-c3ccccc3C(F)(F)F)c(Cn3nccn3)c2)ccc1S(N)(=O)=O` [Example 407], 6.59.
Take `COc1cc(C(=O)Nc2ccc(-c3ccccc3C(F)(F)F)c(COC3CCOCC3)c2)ccc1S(N)(=O)=O` [Example 410]: the pIC50 is 6.28.
In the case of `COc1cc(NC(=O)c2ccc(-c3ccc(F)cc3F)c(CNCC(F)F)c2)ccc1S(N)(=O)=O` [Example 414] it was 5.77; in that of `COc1cc(NC(=O)c2ccc(-c3ccccc3C)c(CNCC(F)F)c2)ccc1S(N)(=O)=O` [Example 415], 6.20; in that of `COc1cc(NC(=O)c2ccc(-c3ccccc3F)c(CNCC(F)F)c2)ccc1S(N)(=O)=O` [Example 419], 5.92.
As to `COc1cc(NC(=O)c2ccc(-c3ccc(F)cc3Cl)c(CNCC(F)F)c2)ccc1S(N)(=O)=O` [Example 426], the pIC50 was 6.24.
The same measure for `COc1cc(NC(=O)c2ccc(-c3ccccc3CC(F)(F)F)c(CNCC(F)F)c2)ccc1S(N)(=O)=O` [Example 438]: over 5.00.
Regarding `COc1cc(NC(=O)c2ccc(-c3ccc(C)cc3C(F)(F)F)c(CNCC(F)F)c2)ccc1S(N)(=O)=O` [Example 440], the pIC50 is over 5.00.
In the case of `COc1cc(NC(=O)c2ccc(-c3cc(C)ccc3C(F)(F)F)c(CNCC(F)F)c2)ccc1S(N)(=O)=O` [Example 443] it was over 5.00; in that of `COc1cc(NC(=O)c2ccc(-c3ccccc3C3CC3)c(CNCC(F)F)c2)ccc1S(N)(=O)=O` [Example 448], over 5.00; in that of `COc1cc(NC(=O)c2ccc(-c3ccccc3Cl)c(CNCC(F)F)c2)ccc1S(N)(=O)=O` [Example 451], 6.26.
Regarding `COc1cc(NC(=O)c2ccc(-c3cccc(Cl)c3Cl)c(CNCC(F)F)c2)ccc1S(N)(=O)=O` [Example 454], the pIC50 is over 5.00.
As to `COc1cc(NC(=O)c2ccc(-c3cc(F)ccc3Cl)c(CNCC(F)F)c2)ccc1S(N)(=O)=O` [Example 457], the negative-log IC50 (pIC50) was over 5.00.
In the case of `COc1cc(NC(=O)c2ccc(-c3ccc(C(F)(F)F)cc3Cl)c(CNCC(F)F)c2)ccc1S(N)(=O)=O` [Example 460] it was over 5.00; in that of `CCOc1ncccc1-c1ccc(C(=O)Nc2ccc(S(N)(=O)=O)c(OC)c2)cc1CNCC(F)F` [Example 463], over 5.00.
As for `COc1cc(NC(=O)c2ccc(-c3ccccc3C(C)(F)F)c(CNCC(F)F)c2)ccc1S(N)(=O)=O` [Example 469], the pIC50 was over 5.00.
For `COc1cc(NC(=O)c2ccc(-c3ccc(F)cc3C3CC3)c(CNCC(F)F)c2)ccc1S(N)(=O)=O` [Example 470], the pIC50 was over 5.00.
Regarding `COc1cc(NC(=O)c2ccc(-c3ccc(Cl)cc3C(F)(F)F)c(CNCC(F)F)c2)ccc1S(N)(=O)=O` [Example 474], the pIC50 was over 5.00.
In the case of `COc1cc(NC(=O)c2ccc(-c3ccccc3OC(F)(F)C(F)F)c(CNCC(F)F)c2)ccc1S(N)(=O)=O` [Example 478] it was over 5.00; in that of `CCCOc1ncccc1-c1ccc(C(=O)Nc2ccc(S(N)(=O)=O)c(OC)c2)cc1CNCC(F)F` [Example 481], over 5.00.
